Assay results reported in patent US8012984B2, “Substituted pyrazinone melanin concentrating hormone receptor-1 antagonists and methods” (Bristol-Myers Squibb Company, priority 2007, dated 2011).

These compounds were tested against T1, MCHR1 (Rattus norvegicus, UniProt P97639) (assay: Assessment of in vivo MCHR1 activity (body weight and food consumption in rats with choice of diets)). Conditions: 3 mg/kg p.o. daily, day 0 through day 4, male Sprague Dawley rats.
T1 construct: from tissue; host or cells: whole animal: male Sprague Dawley rats
T1 sequence (P97639 whole entry): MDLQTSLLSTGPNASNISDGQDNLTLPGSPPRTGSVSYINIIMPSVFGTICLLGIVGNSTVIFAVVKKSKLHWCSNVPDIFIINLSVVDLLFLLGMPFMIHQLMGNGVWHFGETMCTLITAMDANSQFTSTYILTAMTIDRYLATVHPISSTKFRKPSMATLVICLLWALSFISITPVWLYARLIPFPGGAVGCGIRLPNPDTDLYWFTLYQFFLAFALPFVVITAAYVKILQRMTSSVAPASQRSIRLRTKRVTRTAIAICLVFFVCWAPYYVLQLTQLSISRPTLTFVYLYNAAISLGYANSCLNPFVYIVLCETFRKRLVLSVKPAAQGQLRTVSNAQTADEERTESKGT
Set-up: species or system Sprague Dawley rats
Description: Male Sprague Dawley (CD, Charles River Breeding Laboratory) rats weighing approximately 240 grams were placed in individual plastic cages with AlphaDri bedding. The room was maintained at 72° F. and 50% humidity, and a 12/12 light dark cycle with lights out at 1600 hours. The rats were conditioned for 5 days prior to the start of the study to having a choice of foods.
Baseline body weight was measured prior to drug treatment on day 0 of the study. Baseline food consumption was the average of the 3 days prior to the first drug treatment. […] All data were evaluated using ANOVA and Fishers PLSD statistics.
For `COc1cc(-n2ccnc(Sc3ccc(C(F)(F)F)cc3)c2=O)ccc1OCC(C)(C)OC(=O)CN` [Example 193, 1-(2-Methoxy-4-(2-oxo-3-(4-(trifluoromethyl)phenylthio)pyrazin-1(2H)-yl)phenoxy)-2-methylpropan-2-yl 2-aminoacetate], the “Weight Reduction versus Vehicle” value was 0.7%.

Same assay, conditions: 10 mg/kg p.o. daily, day 0 through day 4, male Sprague Dawley rats
With `COc1cc(-n2ccnc(Sc3ccc(C(F)(F)F)cc3)c2=O)ccc1OCC(C)(C)OC(=O)CN` [Example 193, 1-(2-Methoxy-4-(2-oxo-3-(4-(trifluoromethyl)phenylthio)pyrazin-1(2H)-yl)phenoxy)-2-methylpropan-2-yl 2-aminoacetate] the “Weight Reduction versus Vehicle” value was 2.1%.

Same assay, conditions: 30 mg/kg p.o. daily, day 0 through day 4, male Sprague Dawley rats
For `COc1cc(-n2ccnc(Sc3ccc(C(F)(F)F)cc3)c2=O)ccc1OCC(C)OC(=O)[C@@H](N)C(C)C` (stereo in doubt) [Example 202, 1-(2-Methoxy-4-(2-oxo-3-(4-(trifluoromethyl)phenylthio)pyrazin-1(2H)-yl)phenoxy)propan-2-yl 2-amino-3-methylbutanoate], the “Weight Reduction versus Vehicle” value was 2.2%.
For `COc1cc(-n2ccnc(Sc3ccc(C(F)(F)F)cc3)c2=O)ccc1OCC(C)(C)OC(=O)CN` [Example 193, 1-(2-Methoxy-4-(2-oxo-3-(4-(trifluoromethyl)phenylthio)pyrazin-1(2H)-yl)phenoxy)-2-methylpropan-2-yl 2-aminoacetate], the “Weight Reduction versus Vehicle” value was 3.4%.

Same assay, conditions: 45 mg/kg p.o. daily, male Sprague Dawley rats
`COc1cc(-n2ccnc(SCCc3ccccn3)c2=O)ccc1OCC(C)(C)O` [Example 27, 1-(4-(2-Hydroxy-2-methylpropoxy)-3-methoxyphenyl)-3-(2-(pyridin-2-yl)-ethylthio)pyrazin-2(1H)-one] was tested, and the “Weight Reduction versus Vehicle” value was 4.1%.
In the case of `Cc1cc(-n2ccnc(SCCc3ccccc3)c2=O)ccc1OCC(C)(C)O` [Example 113, 1-(4-(2-Hydroxy-2-methylpropoxy)-3-methylphenyl)-3-(phenethylthio)pyrazin-2(1H)-one], the “Weight Reduction versus Vehicle” value is reported as 4.2%.

These compounds were tested against T2, human melanin concentrating hormone receptor (MCHR1) (Homo sapiens, UniProt Q99705, A5T/E4Q) (assay: Radioligand binding assay for assessment of MCHR1 activity). Conditions: membranes of HEK-293 cells expressing mutated hMCHR1; competition with [125I]-MCH.
T2 construct: expressed in transfected cells; host or cells: HEK-293 (stably transfected), membranes
T2 sequence (Q99705 whole entry E4Q/A5T): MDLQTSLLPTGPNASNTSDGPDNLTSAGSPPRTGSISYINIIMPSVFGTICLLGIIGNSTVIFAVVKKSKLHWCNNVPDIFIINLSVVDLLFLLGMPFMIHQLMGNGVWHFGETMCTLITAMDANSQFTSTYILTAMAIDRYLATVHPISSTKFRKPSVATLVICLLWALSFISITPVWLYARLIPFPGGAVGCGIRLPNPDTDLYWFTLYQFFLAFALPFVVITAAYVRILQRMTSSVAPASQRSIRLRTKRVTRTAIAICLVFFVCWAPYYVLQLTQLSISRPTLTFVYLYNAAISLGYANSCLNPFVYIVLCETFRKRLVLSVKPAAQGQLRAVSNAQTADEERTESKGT
Description: Compounds of Formula I were initially characterized in an in vitro binding assay to determine their Ki or ability to antagonize binding of a peptide agonist to the human melanin concentrating hormone receptor (MCHR1).
Membranes from stably transfected HEK-293 cells expressing a mutated (E4Q, AST) hMCHR1 receptor were prepared by dounce homogenization and differential centrifugation. Binding experiments were carried out with 0.5-1.0 ug of membrane protein incubated in a total of 0.2 ml in 25 mM HEPES (pH 7.4) with 10 mM MgCl2, 2 mM EGTA, and 0.1% BSA (Binding Buffer) for 90 min. For competition binding assays, reactions were carried out in the presence of with 0.06-0.1 nM [Phe^n, [^125I]Tyr^19]-MCH and increasing concentrations of unlabeled test molecules. Reactions were terminated by rapid vacuum filtration over 96 well-GFC Unifilter plates pre-coated with 0.075 ml binding buffer containing 1% BSA, and washed 3 times with 0.4 ml of Phospho-buffered Saline (pH 7.4) containing 0.01% TX-100. Filters were dried; 0.05 ml microscint 20 was added to each well and radioactivity was subsequently quantified by scintillation counting on a TopCount™ microplate scintillation counter (Packard). Inhibitory constants were determined by nonlinear least squares analysis using a four parameter logistic equation.
`COc1ccc(-n2ccnc(SCCc3ccc(Cl)cc3)c2=O)cc1OC` [Example 3] showed a Ki of 576 nM.
For `COc1ccc(-n2ccnc(Sc3ccc(OC(F)(F)F)cc3)c2=O)cc1OC` [Example 10], the Ki was 141 nM.
`COc1cc(-n2ccnc(SCCCc3ccccc3)c2=O)ccc1OC[C@@H](C)O` [Example 19] gave a Ki of 3130 nM.
With `COc1cc(-n2ccnc(SCCc3ccccn3)c2=O)ccc1OCC(C)(C)O` [Example 27, 1-(4-(2-Hydroxy-2-methylpropoxy)-3-methoxyphenyl)-3-(2-(pyridin-2-yl)-ethylthio)pyrazin-2(1H)-one] the Ki was 63 nM.
`COc1cc(-n2ccnc(SCCc3ccncc3)c2=O)ccc1OCC(C)(C)O` [Example 28] gave a Ki of 3150 nM.
Compound `COc1cc(-n2ccnc(Sc3ccc(C(F)(F)F)cc3)c2=O)ccc1OCC(C)(C)O` [Example 36] has a Ki of 33 nM.
`COc1cc(-n2ccnc(Sc3ccc(OC(F)(F)F)cc3)c2=O)ccc1OCC(C)(C)O` [Example 38] gave a Ki of 20 nM.
For `COc1cccc(Sc2nccn(-c3ccc(OCC(C)(C)O)c(OC)c3)c2=O)c1` [Example 39], the Ki was 1580 nM.
In the case of `COc1cc(-n2ccnc(Sc3ccccc3C(F)(F)F)c2=O)ccc1OCC(C)(C)O` [Example 40], the Ki is reported as 3220 nM.
`COc1cc(-n2ccnc(SC(C)Cc3ccccc3)c2=O)ccc1OCC(C)(C)O` (stereo not shown) [Example 46] gave a Ki of 232 nM.
For `COc1cc(-n2ccnc(Sc3ccccc3)c2=O)ccc1OCC(C)(C)O` [Example 49], the Ki was 3040 nM.
`COc1cc(-n2ccnc(SCc3ccccc3)c2=O)ccc1OCC(C)(C)O` [Example 50] showed a Ki of 4660 nM.
`COc1cc(-n2ccnc(Sc3nc4ccc(Cl)cc4s3)c2=O)ccc1OCC(C)(C)O` [Example 59] showed a Ki of 125 nM.
`CCc1cc(-n2ccnc(SCCc3ccccc3)c2=O)ccc1OCC(C)(C)O` [Example 65] showed a Ki of 10 nM.
Compound `COc1cc(-n2ccnc(Sc3ccc(OC(F)(F)F)cc3)c2=O)ccc1OCC(O)C1CC1` (stereo not shown) [Example 67] has a Ki of 28 nM.
`COc1cc(-n2ccnc(Sc3ccc(C(F)(F)F)cc3)c2=O)ccc1O[C@H]1COC[C@H]1O` [Example 69] was tested, and the Ki was 49 nM.
In the case of `COc1cc(-n2ccnc(Sc3ccc(C(F)(F)F)cc3)c2=O)ccc1OCC(C)O` (stereo not shown) [Example 71], the Ki is reported as 62 nM.
`Cc1cc(-n2ccnc(Sc3ccc(C(F)(F)F)cn3)c2=O)ccc1OCC(C)(C)O` [Example 95, 1-(4-(2-Hydroxy-2-methylpropoxy)-3-methylphenyl)-3-(5-(trifluoromethyl)pyridin-2-ylthio)pyrazin-2(1H)-one] showed a Ki of 41 nM.
Compound `Cc1cc(-n2ccnc(SCCc3ccccn3)c2=O)ccc1OCC(C)(C)O` [Example 110, 1-(4-(2-Hydroxy-2-methylpropoxy)-3-methylphenyl)-3-(2-(pyridin-2-yl)ethylthio)pyrazin-2(1H)-one] has a Ki of 17 nM.
`Cc1cc(-n2ccnc(SCCc3ccccc3)c2=O)ccc1OCC(C)(C)O` [Example 113, 1-(4-(2-Hydroxy-2-methylpropoxy)-3-methylphenyl)-3-(phenethylthio)pyrazin-2(1H)-one] showed a Ki of 8 nM.
`Cc1cc(-n2ccnc(SCCc3ccc(F)cc3)c2=O)ccc1OCC(C)(C)O` [Example 124] showed a Ki of 9 nM.
`CCc1cc(-n2ccnc(SCCc3ccc(F)cc3)c2=O)ccc1OCC(C)(C)O` [Example 125] showed a Ki of 17 nM.
Compound `COc1cc(-n2ccnc(SCCc3cccc(F)c3)c2=O)ccc1OCC(C)(C)O` [Example 131] has a Ki of 18 nM.
`CC(C)(O)COc1ccc(-n2ccnc(OCCc3ccc(F)cc3)c2=O)cc1Cl` [Example 141] gave a Ki of 78 nM.
In the case of `CCc1cc(-n2ccnc(OCCc3ccc(Cl)cc3)c2=O)ccc1OCC(C)(C)O` [Example 151], the Ki is reported as 64 nM.
With `Cc1cc(-n2ccnc(OCCc3cccc(Cl)c3)c2=O)ccc1OCC(C)(C)O` [Example 155] the Ki was 45 nM.
With `CC(C)(O)COc1ccc(-n2ccnc(Sc3ccc(C(F)(F)F)cc3)c2=O)cn1` [Example 157] the Ki was 1730 nM.
`CC(C)(O)COc1ncc(-n2ccnc(SCCc3ccccn3)c2=O)cc1Cl` [Example 169] was tested, and the Ki was 1290 nM.
`Cc1cc(-n2ccnc(Sc3ccc(C(F)(F)F)cc3)c2=O)cnc1OCC(C)(C)O` [Example 170] gave a Ki of 132 nM.
In the case of `Cc1cc(-n2ccnc(SCCc3ccccc3)c2=O)cnc1OCC(C)(C)O` [Example 172], the Ki is reported as 85 nM.
In the case of `Cc1cc(=O)n(CC(C)(C)O)c2ccc(-n3ccnc(Sc4ccc(OC(F)(F)F)cc4)c3=O)cc12` [Example 178], the Ki is reported as 290 nM.
